Experimental data as given in ChEMBL document CHEMBL5634150, “Design, synthesis and biological evaluation of novel dihydroquinolin-4(1H)-one derivatives as novel tubulin polymerization inhibitors” (Eur J Med Chem, 2023).
≈ marks a conversion by molar mass, not a printed value. Calls of active or inactive are those of the source. The rule behind the calls is not given here.

Key:
MDA-MB-231 [1] = test: Inhibition of cell invasion in human MDA-MB-231 cells at 1.5 to 6 nM measured after 48 hrs by crystal violet staining microscopy based transwell assay; format: functional; details: dose 1.5-6 nM
[2] = Metabolic stability in mouse plasma assessed as half life at 1 uM and measured upto 3 hrs by LC-MS/MS analysis; format: ADME, cell-free
[3] = Antiproliferative activity against human HFL1 cells assessed as inhibition of cell growth measured after 72 hrs by MTT assay; format: toxicity, cell-based
[4] = Metabolic stability in mouse liver microsomes assessed as half life at 100 uM measure upto 60 mins in presence of NADPH by LC-MS/MS analysis; format: ADME, Microsome
H22 [5] = test: Antitumor activity against mouse H22 cells allografted in mouse model assessed as tumor growth inhibition at 20 mg/kg,iv administered once daily for 3 weeks relative to control; format: functional; details: H22, 504 h, read-out: TGI
K562 [6] = test: Induction of apoptosis in human K562 cells at 6 nM measured after 48 hrs by Annexin V-FITC/7-AAD staining based flow cytometric analysis relative to control; format: functional
Tubulin (Homo sapiens) [7] = target: T1, Tubulin (Homo sapiens) (UniProt P68371+Q9H4B7+P0DPH7+P68366+Q13509+Q71U36+P04350+Q3ZCM7+P07437+P68363+Q9BQE3+Q6PEY2+Q13885+Q9BVA1+Q9BUF5); test: Inhibition of [3H]colchicine binding to tubulin (unknown origin) at 1 uM incubated for 2 hrs by scintillation counter analysis relative to control; format: protein-complex assay
K562 [8] = test: Induction of cell cycle arrest in human K562 cells assessed as accumulation of cells at G1 phase at 6 nM incubated overnight by PI staining based flow cytometry analysis (reference value: 78.45%); format: functional
K562 [9] = test: Induction of apoptosis in human K562 cells assessed as nuclear fragmentation at 1.5 to 6 nM incubated for 24 hrs by Hoechst 33342 staining based fluorescence microscopic analysis; format: functional, cell-based; details: dose 1.5-6 nM
A549 [10] = test: Antiproliferative activity against human A549 cells assessed as inhibition of cell growth measured after 72 hrs by MTT assay; format: functional, cell-based; details: A549, 72 h
[11] = Aqueous solubility of the compound by HPLC analysis; format: physicochemical; details: aqueous (not further specified)
A549 [12] = test: Antiproliferative activity against human A549 cells assessed as inhibition of cell growth at 0.1 uM measured after 72 hrs by MTT assay relative to control; format: functional
K562 [13] = test: Induction of ROS generation in human K562 cells incubated for 24 hrs by DCFH-DA staining based assay; format: functional, cell-based; details: dose 1.5-6 nM
K562 [14] = test: Induction of cell cycle arrest in human K562 cells assessed as accumulation of cells at G1 phase at 1.5 nM incubated overnight by PI staining based flow cytometry analysis (reference value: 78.45%); format: functional
HepG2 = test: Antiproliferative activity against human HepG2 cells assessed as inhibition of cell growth measured after 72 hrs by MTT assay; format: functional, cell-based; details: HepG2, 72 h
[15] = Toxicity in mouse assessed as effect on kidney at 20 mg/kg by H and E staining based microscopic analysis; format: organism-based; details: in vivo
K562 [16] = test: Induction of cell cycle arrest in human K562 cells assessed as accumulation of cells at G1 phase at 3 nM incubated overnight by PI staining based flow cytometry analysis (reference value: 78.45%); format: functional
Tubulin (Homo sapiens) [17] = target: T1, Tubulin (Homo sapiens); test: Inhibition of [3H]colchicine binding to tubulin (unknown origin) at 5 uM incubated for 2 hrs by scintillation counter analysis relative to control; format: protein-complex assay
H22 [18] = test: Antitumor activity against mouse H22 cells allografted in mouse model assessed as decrease in MVD cells at 20 mg/kg by immunohistochemistry analysis; format: functional, organism-based
K562 [19] = test: Induction of cell cycle arrest in human K562 cells assessed as accumulation of cells at G2/M phase at 6 nM incubated overnight by PI staining based flow cytometry analysis (reference value: 5.57%); format: functional
Tubulin (Homo sapiens) [20] = target: T1, Tubulin (Homo sapiens); test: Inhibition of tubulin polymerization in human K562 cells assessed as microtubule destruction network at 1.5 to 6 uM incubated for 48 hrs by immunofluorescence staining based inverted microscopic analysis; format: cell-based; details: dose 1.5-6 µM
[21] = Toxicity in mouse assessed as effect on body weight loss at 20 mg/kg, iv administered once daily for 3 weeks; format: organism-based; details: in vivo, 504 h
A549/TR = test: Antiproliferative activity against human A549/Taxol cells assessed as inhibition of cell growth measured after 72 hrs by MTT assay; format: functional, cell-based
[22] = Metabolic stability in mouse plasma assessed as compound remaining at 1 uM and measured at 3 hrs by LC-MS/MS analysis; format: ADME, cell-free; details: read-out: Stability
K562 [23] = test: Induction of cell cycle arrest in human K562 cells assessed as accumulation of cells at G2/M phase at 3 nM incubated overnight by PI staining based flow cytometry analysis (reference value: 5.57%); format: functional
K562 [24] = test: Antiproliferative activity against human K562 cells assessed as inhibition of cell growth measured after 72 hrs by MTT assay; format: functional, cell-based; details: K562, 72 h
K562 [25] = test: Induction of apoptosis in human K562 cells assessed as increase in bax level at upto 6 nM measured after 48 hrs by Western blot analysis; format: functional, cell-based
K562 [26] = test: Induction of apoptosis in human K562 cells assessed as chromatin aggregation at 1.5 to 6 nM incubated for 24 hrs by Hoechst 33342 staining based fluorescence microscopic analysis; format: functional, cell-based; details: dose 1.5-6 nM
MDA-MB-231 [27] = test: Antiproliferative activity against human MDA-MB-231 cells assessed as inhibition of cell growth measured after 72 hrs by MTT assay; format: functional, cell-based; details: MDA-MB-231, 72 h
Cell membrane = test: Induction of mitochondrial membrane depolarization in human K562 cells assessed as increase in green fluorescence intensity at incubated for 48 hrs by JC-1 staining based flow cytometry; format: cell membranes; details: dose 1.5-6 nM
[28] = Toxicity in mouse assessed as effect on spleen at 20 mg/kg by H and E staining based microscopic analysis; format: organism-based; details: in vivo
H22 [29] = test: Antitumor activity against mouse H22 cells allografted in mouse model assessed as inhibition of tumor weight administered as iv dose for once daily for 3 weeks; format: functional, organism-based; details: dose 10-20 mg/kg
A549 [30] = test: Antiproliferative activity against human A549 cells assessed as inhibition of cell growth at 1 uM measured after 72 hrs by MTT assay relative to control; format: functional
H22 [31] = test: Antitumor activity against mouse H22 cells allografted in mouse model assessed as decrease in Ki67 positive cells at 20 mg/kg by immunohistochemistry analysis; format: functional, organism-based
[32] = Toxicity in mouse assessed as effect on liver at 20 mg/kg by H and E staining based microscopic analysis; format: organism-based; details: in vivo
K562 [33] = test: Induction of cell cycle arrest in human K562 cells assessed as accumulation of cells at S phase at 3 nM incubated overnight by PI staining based flow cytometry analysis (reference value: 15.98%); format: functional
HUVEC [34] = test: Anti-angiogenesis activity in HUVEC cells assessed as reduction in […] at 400 nM measured after 24 hrs by wound healing assay relative to control; format: functional, Homo sapiens; set-up: scale not given: the % may be the effect or the level left
K562 [35] = test: Induction of apoptosis in human K562 cells assessed as downregulation of bcl-2 level at upto 6 nM measured after 48 hrs by Western blot analysis; format: functional, cell-based
HUVEC [36] = test: Anti-angiogenesis activity in HUVEC cells assessed as disruption of capillary tube structure at 1.5 to 6 nM measured after 6 hrs by contrast microscopy based analysis; format: functional, cell-based; details: Homo sapiens, dose 1.5-6 nM

Q: For CCn1ccc2cc(N3CCC(=O)c4c3cc(OC)c(OC)c4OC)ccc21, which inhibition (MDA-MB-231 [1]) is on record?
A: Active

Q: What about the half-life at 1 µM [2] of the same compound?
A: > 180 min

Q: And the IC50 at 72 h [3]?
A: 0.062 µM

Q: What about the half-life at 100 µM [4] of the same compound?
A: 10.7 min

Q: And the inhibition in vivo at 20 mg/kg (H22 [5])?
A: 63.3%

Q: And the Activity (K562 [6])?
A: 45.82%

Q: And the inhibition (Tubulin (Homo sapiens) [7])?
A: 63.9%

Q: What about the Activity (K562 [8]) of the same compound?
A: 47.52%

Q: What about the Activity (K562 [9]) of the same compound?
A: Active

Q: And the IC50 (A549 [10])?
A: 0.008 µM

Q: What about the solubility [11] of the same compound?
A: 6.68 µg/mL (≈ 17.6 µM)

Q: What about the inhibition at 0.1 µM (A549 [12]) of the same compound?
A: 78.3%

Q: What about the Activity (K562 [13]) of the same compound?
A: Dose-Dependent Effect

Q: What about the Activity (K562 [14]) of the same compound?
A: 66.8%

Q: What about the IC50 (HepG2) of the same compound?
A: 0.009 µM

Q: What about the Activity [15] of the same compound?
A: Non-Toxic

Q: And the Activity (K562 [16])?
A: 59.63%

Q: What about the inhibition (Tubulin (Homo sapiens) [17]) of the same compound?
A: 75.9%

Q: What about the Activity (H22 [18]) of the same compound?
A: Active

Q: What about the Activity (K562 [19]) of the same compound?
A: 22%

Q: What about the inhibition (Tubulin (Homo sapiens) [20]) of the same compound?
A: Active

Q: And the Activity [21]?
A: Non-Toxic

Q: And the IC50 (A549/TR)?
A: 0.043 µM

Q: And the remaining at 3 h, 1 µM [22]?
A: 105%

Q: What about the Activity (K562 [23]) of the same compound?
A: 12.33%

Q: What about the IC50 (K562 [24]) of the same compound?
A: 0.003 µM

Q: And the Activity (K562 [25])?
A: Active

Q: And the Activity (K562 [26])?
A: Active

Q: And the IC50 (MDA-MB-231 [27])?
A: 0.024 µM

Q: And the Activity (Cell membrane)?
A: Dose-Dependent Effect

Q: And the Activity [28]?
A: Non-Toxic

Q: And the Activity (H22 [29])?
A: Dose-Dependent Effect

Q: And the inhibition at 1 µM (A549 [30])?
A: 79%

Q: And the Activity (H22 [31])?
A: Active

Q: What about the Activity [32] of the same compound?
A: Non-Toxic

Q: What about the Activity (K562 [33]) of the same compound?
A: 28.04%

Q: And the Activity (HUVEC [34])?
A: <50%

Q: What about the Activity (K562 [35]) of the same compound?
A: Active

Q: And the Activity (HUVEC [36])?
A: Active
